In US10111873B1, “Dihydropyrimidinone derivatives” (KING SAUD UNIVERSITY, priority 2018, dated 2018) one finds melting point data, which are given here for 19 compounds.

On to `O=C1NC=C(C(=O)c2ccc(N3CCNCC3)cc2)C(c2ccccc2)N1` (stereo not shown) [DHPM-1, 4-phenyl-5-[4-(piperazin-1-yl)benzoyl]-3,4-dihydropyrimidin-2(1H)-one], for which the melting point was in the range of 150 to 152 °C.
As for `O=C1NC=C(C(=O)c2ccc(N3CCNCC3)cc2)C(c2ccccc2[N+](=O)[O-])N1` (stereo not shown) [DHPM-2, 4-(2-Nitrophenyl)-5-[4-(piperazin-1-yl)benzoyl]-3,4-dihydropyrimidin-2(1H)-one], the melting point was in the range of 170 to 172 °C.
With `O=C1NC=C(C(=O)c2ccc(N3CCNCC3)cc2)C(c2ccc([N+](=O)[O-])cc2)N1` (stereo not shown) [DHPM-3, 4-(4-Nitrophenyl)-5-[4-(piperazin-1-yl)benzoyl]-3,4-dihydropyrimidin-2(1H)-one], the melting point is 175 to 177 °C.
Take `O=C1NC=C(C(=O)c2ccc(N3CCNCC3)cc2)C(c2cccc([N+](=O)[O-])c2)N1` (stereo not shown) [DHPM-4, 4-(3-Nitrophenyl)-5-[4-(piperazin-1-yl)benzoyl]-3,4-dihydropyrimidin-2(1H)-one]: the melting point was 180 to 182 °C.
Turning to `O=C1NC=C(C(=O)c2ccc(N3CCNCC3)cc2)C(c2ccc(Cl)cc2)N1` (stereo not shown) [DHPM-5, 4-(4-Chlorophenyl)-5-[4-(piperazin-1-yl)benzoyl]-3,4-dihydropyrimidin-2(1H)-one], the melting point lay within 160 to 162 °C.
Take `COc1ccccc1C1NC(=O)NC=C1C(=O)c1ccc(N2CCNCC2)cc1` (stereo not shown) [DHPM-6, 4-(2-methoxyphenyl)-5-[4-(piperazin-1-yl)benzoyl]-3,4-dihydropyrimidin-2(1H)-one]: the melting point lay within 120 to 122 °C.
Regarding `O=C1NC=C(C(=O)c2ccc(N3CCNCC3)cc2)C(c2ccc(O)cc2)N1` (stereo not shown) [DHPM-7, 4-(4-Hydroxyphenyl)-5-[4-(piperazin-1-yl)benzoyl]-3,4-dihydropyrimidin-2(1H)-one], the melting point lay in the range of 210 to 212 °C.
The compound `O=C1NC=C(C(=O)c2ccc(N3CCNCC3)cc2)C(c2cccc(O)c2)N1` (stereo not shown) [DHPM-8, 4-(3-Hydroxyphenyl)-5-[4-(piperazin-1-yl)benzoyl]-3,4-dihydropyrimidin-2(1H)-one] displayed a melting point of 158 to 160 °C.
In turn, `COc1cccc(C2NC(=O)NC=C2C(=O)c2ccc(N3CCNCC3)cc2)c1` (stereo not shown) [DHPM-9, 4-(3-methoxyphenyl)-5-[4-(piperazin-1-yl)benzoyl]-3,4-dihydropyrimidin-2(1H)-one] showed a melting point of 118 to 120 °C.
On to `CCOc1cccc(C2NC(=O)NC=C2C(=O)c2ccc(N3CCNCC3)cc2)c1` (stereo not shown) [DHPM-10, 4-(3-Ethoxyphenyl)-5-[4-(piperazin-1-yl)benzoyl]-3,4-dihydropyrimidin-2(1H)-one], for which the melting point was in the range of 88 to 90 °C.
The compound `O=C1NC=C(C(=O)c2ccc(N3CCOCC3)cc2)C(c2ccccc2)N1` (stereo not shown) [DHPM-11, 5-[4-(morpholin-4-yl)benzoyl]-4-phenyl-3,4-dihydropyrimidin-2(1H)-one] yielded a melting point of 258 to 260 °C.
`O=C1NC=C(C(=O)c2ccc(N3CCOCC3)cc2)C(c2ccccc2[N+](=O)[O-])N1` (stereo not shown) [DHPM-12, 5-[4-(morpholin-4-yl)benzoyl]-4-(2-nitrophenyl)-3,4-dihydropyrimidin-2(1H)-one] came in with a melting point of 198 to 200 °C.
The compound `O=C1NC=C(C(=O)c2ccc(N3CCOCC3)cc2)C(c2ccc([N+](=O)[O-])cc2)N1` (stereo not shown) [DHPM-13, 5-[4-(morpholin-4-yl)benzoyl]-4-(4-nitrophenyl)-3,4-dihydropyrimidin-2(1H)-one] displayed a melting point of 202 to 204 °C.
The figure for `O=C1NC=C(C(=O)c2ccc(N3CCOCC3)cc2)C(c2cccc([N+](=O)[O-])c2)N1` (stereo not shown) [DHPM-14, 5-[4-(morpholin-4-yl)benzoyl]-4-(3-nitrophenyl)-3,4-dihydropyrimidin-2(1H)-one] is 205 to 207 °C; for `O=C1NC=C(C(=O)c2ccc(N3CCOCC3)cc2)C(c2ccc(Cl)cc2)N1` (stereo not shown) [DHPM-15, 4-(4-chlorophenyl)-5-[4-(morpholin-4-yl)benzoyl]-3,4-dihydropyrimidin-2(1H)-one] it is 288 to 290 °C.
The figure for `COc1ccccc1C1NC(=O)NC=C1C(=O)c1ccc(N2CCOCC2)cc1` (stereo not shown) [DHPM-16, 4-(2-methoxyphenyl)-5-[4-(morpholin-4-yl)benzoyl]-3,4-dihydropyrimidin-2(1H)-one] is 178 to 180 °C; for `O=C1NC=C(C(=O)c2ccc(N3CCOCC3)cc2)C(c2ccc(O)cc2)N1` (stereo not shown) [DHPM-17, 4-(4-hydroxyphenyl)-5-[4-(morpholin-4-yl)benzoyl]-3,4-dihydropyrimidin-2(1H)-one] it is 118 to 120 °C; for `O=C1NC=C(C(=O)c2ccc(N3CCOCC3)cc2)C(c2cccc(O)c2)N1` (stereo not shown) [DHPM-18, 4-(3-hydroxyphenyl)-5-[4-(morpholin-4-yl)benzoyl]-3,4-dihydropyrimidin-2(1H)-one] it is 120 to 122 °C.
The compound `CCOc1ccc(C2NC(=O)NC=C2C(=O)c2ccc(N3CCOCC3)cc2)cc1` (stereo not shown) [DHPM-20, 4-(4-ethoxyphenyl)-5-[4-(morpholin-4-yl)benzoyl]-3,4-dihydropyrimidin-2(1H)-one] showed a melting point of 200 to 202 °C.

In general, melting point refers to the temperature of the solid-liquid transition.
